Assays:
[1] = molecular target: T1, human insulin (Homo sapiens, UniProt P01308); assay: Physical stability of insulin solution at 5° C. by visual inspection for precipitation; type: physicochemical; conditions: 0.5 Zn2+/insulin, NaCl 15 mM, glycylglycine 7 mM, tween 20 0.01%, pH 7.5
T1 construct: Insulin derivatives having truncations in the C-terminal of the B-chain; deamidations at A18, A21 and B3
Method: (§1) 27.5 ml of a 21 mM insulin stock solution was made by dissolving 3.707 g zinc free human insulin in 14 ml water and adding 2888 μl of 0.1 M ZnCl2 and 7 ml water before adjusting pH to 7.5 by 0.2 M NaOH and finally adding water to 27.5 ml, calculating the specific volume of insulin as 0.7 μl/mg. The stock solution was filtrated. A preparation of 3.5 ml 15 mM insulin was then made by adding 23 μl 2.3 M stabiliser in ethanol, 49 μl 0.5 M glycylglycine and 35 μl 1% Tween 20 and water to 3.5 ml. The solution was thereafter diluted with medium containing sodium chloride 15 mM, glycylglycine 7 mM, Tween 20 0.01%, pH 7.5 to 12, 9, 6, 3 and 0.6 mM insulin and stored at 5° C. for visual inspection. The reference solution was made by the same way but without adding a stabiliser. The chemical stability of the insulin solutions were followed at 37° C. for two concentrations, 3 and 15 mM, by determination of covalent insulin polymer by size exclusion chromatography. […] Detection was performed with a tunable absorbance detector (Waters 486) at 276 nm. Injection volume were […] for 3 and 15 mM insulin solutions, respectively.
(§2) 3.26 g human insulin (0.4 equivalent Zn^2+ per insulin) was dispersed in water in 18 ml water on icebath and added 490 μl 0.5 M glycylglycine and 1628 μl sodium hydroxide (3.1 equivalent) and stirred slowly overnight at 5° C. 613 μl 0.1 M zinc chloride (0.1 equivalent of zinc) was then added the solution, pH adjusted to 7.5 by 410 μl 1 M hydrochloric acid (0.8 equivalent of chloride) and the volume adjusted to 25 ml by water. Finally the stock solution of 21 mM insulin was filtrated. 3.57 ml of the stock solution was added 50 μl 1% tween 20, 750 μl 0.1 M stabiliser and 630 μl water to obtain 5 ml 15 mM insulin formulation. Finally the preparation was diluted with medium containing sodium chloride, glycylglycine and detergent to obtain 12, 9, 6, and 3 mM of human insulin and stored at 5° C. for visual inspection. The chemical stability of 3 and 15 mM insulin solutions were followed at 37° C. by determination of covalent insulin polymer by size exclusion chromatography.

[2] = molecular target: T1, human insulin; assay: Chemical stability at 37° C.: covalent insulin polymer by size exclusion chromatography; type: physicochemical; conditions: stabiliser equimolar to insulin, 0.5 Zn2+/insulin, NaCl 15 mM, glycylglycine 7 mM, tween 20 0.01%, pH 7.5
Method: as §1, §2

[3] = example 1, stabiliser equimolar to insulin
[4] = example 2, stabiliser equimolar to insulin

T1 sequence (P01308 25-54 limits assumed): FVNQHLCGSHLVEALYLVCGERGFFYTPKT
T1 sequence (P01308 90-110 limits assumed): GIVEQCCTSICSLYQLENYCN

## CC1(C)C2CCC1(C)C(O)C2 (single isomer, unassigned; (-)) [(−)-borneol]
[1]; [3]
  Physical stability of solution at 4 weeks and 5° C.: maximal insulin concentration at which the solution was without precipitation up to 15 mM (3, 6, 9, 12, 15 mM): 9 mM
[2]; example 1, 3 mM insulin
  Chemical stability at 37° C. (% polymer/week), insulin solution of 3 mM: 0.43 % polymer/week
[2]; example 1, 15 mM insulin
  Chemical stability at 37° C. (% polymer/week), insulin solution of 15 mM: 0.47 % polymer/week

## CC1(C)[C@H]2CC[C@](C)(C2)[C@H]1O [(+)-fenchol]
[1]; [3]
  Physical stability of solution at 4 weeks and 5° C.: maximal insulin concentration at which the solution was without precipitation up to 15 mM (3, 6, 9, 12, 15 mM): 15 mM
[2]; example 1, 3 mM insulin
  Chemical stability at 37° C. (% polymer/week), insulin solution of 3 mM: 0.50 % polymer/week
[2]; example 1, 15 mM insulin
  Chemical stability at 37° C. (% polymer/week), insulin solution of 15 mM: 0.97 % polymer/week

## C[C@@H]1[C@@H](O)C[C@H]2C[C@@H]1C2(C)C [(+)-isopinocampheol]
[1]; [3]
  Physical stability of solution at 4 weeks and 5° C.: maximal insulin concentration at which the solution was without precipitation up to 15 mM (3, 6, 9, 12, 15 mM): 12 mM

## CC1C(O)CC2CC1C2(C)C (single isomer, unassigned; (-)) [(−)-isopinocampheol]
[1]; [3]
  Physical stability of solution at 4 weeks and 5° C.: maximal insulin concentration at which the solution was without precipitation up to 15 mM (3, 6, 9, 12, 15 mM): 15 mM

## c1ncc2[nH]cnc2n1 [purine]
[1]; [4]
  Physical stability of solution at 4 weeks and 5° C.: maximal insulin concentration at which the solution was without precipitation up to 15 mM (3, 6, 9, 12, 15 mM): 15 mM
[2]; example 2, 3 mM insulin
  Chemical stability at 37° C. (% polymer/week), insulin solution of 3 mM: 0.58 % polymer/week
[2]; example 2, 15 mM insulin
  Chemical stability at 37° C. (% polymer/week), insulin solution of 15 mM: 0.71 % polymer/week

## Oc1ccccc1 [phenol]
[1]; [3]
  Physical stability of solution at 4 weeks and 5° C.: maximal insulin concentration at which the solution was without precipitation up to 15 mM (3, 6, 9, 12, 15 mM): 15 mM
[1]; [4]
  Physical stability of solution at 4 weeks and 5° C.: maximal insulin concentration at which the solution was without precipitation up to 15 mM (3, 6, 9, 12, 15 mM): 15 mM
[2]; example 1, 3 mM insulin
  Chemical stability at 37° C. (% polymer/week), insulin solution of 3 mM: 0.37 % polymer/week
[2]; example 1, 15 mM insulin
  Chemical stability at 37° C. (% polymer/week), insulin solution of 15 mM: 0.39 % polymer/week
[2]; example 2, 3 mM insulin
  Chemical stability at 37° C. (% polymer/week), insulin solution of 3 mM: 0.32 % polymer/week
[2]; example 2, 15 mM insulin
  Chemical stability at 37° C. (% polymer/week), insulin solution of 15 mM: 0.29 % polymer/week

## Nc1ncnc2nc[nH]c12 [adenine]
[1]; [4]
  Physical stability of solution at 4 weeks and 5° C.: maximal insulin concentration at which the solution was without precipitation up to 15 mM (3, 6, 9, 12, 15 mM): 9 mM
[2]; example 2, 3 mM insulin
  Chemical stability at 37° C. (% polymer/week), insulin solution of 3 mM: 0.59 % polymer/week
[2]; example 2, 15 mM insulin
  Chemical stability at 37° C. (% polymer/week), insulin solution of 15 mM: 0.77 % polymer/week

## CC1(C)[C@H]2CC[C@H](CO)[C@@H]1C2 (relative stereo) [(−)-trans-myrtanol]
[1]; [3]
  Physical stability of solution at 4 weeks and 5° C.: maximal insulin concentration at which the solution was without precipitation up to 15 mM (3, 6, 9, 12, 15 mM): 15 mM

## CC1(C)C2CCC1(C)C(O)C2 (single isomer, unassigned; (+)) [(+)-borneol]
[1]; [3]
  Physical stability of solution at 4 weeks and 5° C.: maximal insulin concentration at which the solution was without precipitation up to 15 mM (3, 6, 9, 12, 15 mM): 9 mM
[2]; example 1, 3 mM insulin
  Chemical stability at 37° C. (% polymer/week), insulin solution of 3 mM: 0.47 % polymer/week
[2]; example 1, 15 mM insulin
  Chemical stability at 37° C. (% polymer/week), insulin solution of 15 mM: 0.61 % polymer/week
